In patent publication US11357774B2, “Use of a quinoline sulfonyl compound for treatment of inflammation, inflammatory disorders, autoimmune disorders and malaria” (priority 2019, dated 2022):

Key:
[1] = test system: cancer over non-cancer cells; conditions: in vitro studies; cited from earlier work
[2] = test system: IL-8 secretion in THP-1 cells; assay: IL-8 secretion in TNF-α-stimulated THP-1 cells (ELISA); format: cell-based, human; conditions: THP-1, TNF-α 10 ng/mL, 6 hours
Method: For comparison, BTZ (6 nM), CFZ (1 nM), and DEX (2 μM) were also included. *** is p<0.001, which denotes a significant difference from the TNF-α-only group, determined by a Dunnett's test. The values presented are the mean±SEM (n=3).
The enzyme-linked immunosorbent assay (ELISA) is a quantitative measurement based on sandwich-based enzyme linking, using a protein-specific capture antibody to determine the levels of single or multiple chemokines and cytokines.
The data in FIG. 12 show the levels of IL-8 secreted in the THP-1 culture medium in response to TNF-α alone (10 ng/mL) or in combination with varying concentrations (0.5, 1.0, 2, 4 or 6 μM) of VR23. For comparison, BTZ (6 nM), CFZ (1 nM) and DEX (2 μM) were also included. The measurement time was 6-hour post-stimulation. The measurement was carried out with a single-analyte ELISA.

[3] = test system: PBMC cells; assay: Sulforhodamine B (SRB) assay, IC50 on PBMC; format: cell-based, human
Method: The sulforhodamine B (SRB) assay^21 was used to determine the drug concentration that half of the cell growth/viability is inhibited (IC50). Cells were cultured in 96-well plates, with 5,000 cells in 100 μL of culture medium per well. The rest of the protocol was the same as described previously^22,23.
Data shown in Table 1 are IC50 values of VR23 and other compounds, which were determined using sulforhodamine B (SRB) assays on immunologically relevant cells (THP-1, SW-982 and PBMC). […] Two well-known proteasome inhibitors, BTZ and CFZ, were included for comparison since VR23 is also a proteasome inhibitor, albeit targeting different subunits^2. The widely used anti-inflammatory DEX was included, also for comparison.
THP-1, SW982 and PBMC cells (5,000 cells/well) were treated with each compound for 48 hours. The IC50, the drug concentration reducing cell growth/viability by 50%, was determined by a dose-response four-parameter curve (generated with GraphPad Prism V. 4.02) formed by 10 two-fold dilutions (n=3).

[4] = test system: CQ-sensitive P. falciparum 3D7; assay: Anti-parasitic assay (SYBR Green I), 3D7 strain; format: cell-based; conditions: Plasmodium falciparum, 3D7, 48 h
Method: The CQ-resistant P. falciparum ItG and the CQ-sensitive 3D7 strains were maintained and assays carried out as described previously^25. Briefly, P. falciparum strains were maintained in RPMI 1640 culture medium supplemented with 10% human serum, 25 mM HEPES, gentamicin, and 50 μM of hypoxanthine. The anti-parasitic assay was carried out as described previously^25. Briefly, a compound gradient was generated across a 96-well assay plate; a constant number of parasites added in 50 μL of the culture medium; allowed to grow for 48 hours; and followed by the measurement of DNA amounts (i.e., fluorescence) using SYBR Green I. The IC50 value is the 50% point between alive and dead for which a three-parameter fit was used.
VR23 is a derivative of CQ; a well-known anti-malarial drug. […] ItG and […] P. falciparum strains are CQ-resistant and CQ-sensitive strains, respectively. IC50 values were calculated by S.E.M (Table 2).

[5] = target: β2 subunit of the proteasome 20S catalytic unit (Homo sapiens, UniProt Q99436); conditions: cited from earlier work
[6] = test system: mouse lung tissues with ALI caused by LPS; assay: Histopathological analysis of lung tissues of mice with LPS-induced ALI; format: in vivo; conditions: LPS 0.4 mg/kg, 24 hours, VR23 30 mg/kg, DEX 4 mg/kg
Method: Six to eight week old female BALB/c mice strain 028 (Charles River Laboratories, QC, Canada) were fed regularly with laboratory chow and water upon arrival at the Laurentian University Animal Care Facility (Sudbury, ON, Canada). To determine a useful dose of LPS, three mice per group were treated for 24 hours with the following three different conditions: (i) no LPS, (ii) 0.25 mg of LPS per kg of body weight, and (iii) 0.50 mg of LPS per kg of body weight. The different concentrations of LPS were administered intranasally to the three BALB/c mice per concentration. After the animals were sacrificed, the bronchoalveolar lavage fluid (BALF) of each mouse was collected and analyzed for LPS-induced inflammatory responses. […] Experimental design involving the use of VR23 was based on a previous acute lung injury (ALI) instillation by Wei and Huang^26. Briefly, mice were divided into 5 groups, with 3-5 mice per group: no lung injury (i.e., no treat), sham treated, LPS-only, LPS+DEX, and LPS+VR23. […] Bronchoalveolar lavage fluid was collected and the number of cells infiltrated into the bronchoalveolar fluid were counted (FIG. 2). […]
At 24-hour post-induction of lung injury with LPS, lung tissues were embedded in the paraffin block, followed by slicing them into 10 μm sections using a microtome. […] For microscopy, at least 10 fields were analyzed for each sample. […]

O=[N+]([O-])c1ccc(S(=O)(=O)N2CCN(c3ccnc4cc(Cl)ccc34)CC2)c([N+](=O)[O-])c1 [VR23, 7-chloro-4-(4-(2,4-dinitrophenylsulfonyl)piperazin-1-yl)quinoline]
selectivity of cell killing [1]: preferentially kills cancer over non-cancer cells
level of IL-8 ([2]; 0.5 μM): significantly (p<0.001) reduced the level of IL-8
IL-8 secretion ([2]; VR23 at IC50 concentration (between 2 and 4 μM), BTZ 6 nM, CFZ 1 nM): effectively reduces IL-8 secretion
IC50 ([3]; 48 hours): 3.14 ± 0.26 µM
IC50 ([3]; Homo sapiens, 48 h): 3 µM
IC50 [4]: 416 nM
proteasome inhibition [5]: strong proteasome inhibitor
alveolar inflammation caused by LPS (H & E histopathology) [6]: largely prevented
